Measurements as given in ChEMBL document CHEMBL3872242, “Anti-inflammatory tetraquinane diterpenoids from a Crinipellis species” (Bioorg Med Chem, 2017).
pIC50: −log10 of the molar value. Activity calls are given as the source filed them. The calls are words filed in the database; no cut-off is given here.

Key:
[1] = Cytotoxicity against human MONO-MAC-6 cells up to 50 uM measured after 24 hrs by XTT assay; format: toxicity, cell-based; details: mono-mac-6, 24 h
[2] = Down regulation of TNF-alpha mRNA expression in LPS/INF-gamma stimulated human MONO-MAC-6 cells at 16.54 uM preincubated for 1 hr followed by LPS/INF-gamma stimulation measured after 4 hrs by quantitative RT-PCR analysis; format: functional, cell-based
[3] = Inhibition of NF-kappaB (unknown origin) expressed in LPS/INF-gamma-stimulated human MONO-MAC-6 cells measured after 4 hrs by luciferase reporter gene assay; format: cell-based; details: MONO-MAC-6, 4 h
[4] = Effect on GAPDH mRNA expression in human MONO-MAC-6 cells at 3.31 to 16.54 uM preincubated for 1 hr followed by LPS/INF-gamma stimulation measured after 4 hrs by quantitative RT-PCR analysis; format: ADME, cell-based; details: mono-mac-6, 4 h
[5] = test system: MONO-MAC-6; test: Inhibition of CXCL1 mRNA expression in LPS/INF-gamma stimulated human MONO-MAC-6 cells at 16.54 uM preincubated for 1 hr followed by LPS/INF-gamma stimulation measured after 16 hrs; format: functional, cell-based
[6] = test system: MONO-MAC-6; test: Inhibition of human THP1 cells derived IL-8 promoter dependent transcription activity expressed in LPS/INF-gamma stimulated human MONO-MAC-6 cells measured after 4 hrs by luciferase reporter gene assay; format: functional, cell-based; details: MONO-MAC-6, 4 h
[7] = test system: MONO-MAC-6; test: Inhibition of TNF-alpha mRNA expression in LPS/INF-gamma stimulated human MONO-MAC-6 cells at 16.54 uM preincubated for 1 hr followed by LPS/INF-gamma stimulation measured after 16 hrs; format: functional, cell-based
[8] = test system: MONO-MAC-6; test: Inhibition of IL-23 mRNA expression in LPS/INF-gamma stimulated human MONO-MAC-6 cells at 16.54 uM preincubated for 1 hr followed by LPS/INF-gamma stimulation measured after 16 hrs; format: functional, cell-based
[9] = test system: MONO-MAC-6; test: Inhibition of IL-6 mRNA expression in LPS/INF-gamma stimulated human MONO-MAC-6 cells at 16.54 uM preincubated for 1 hr followed by LPS/INF-gamma stimulation measured after 16 hrs; format: functional, cell-based
[10] = Effect on constitutive activity of EF-1alpha expressed in human MONO-MAC-6 cells up to 50 uM measured after 4 hrs by luciferase reporter gene assay; format: ADME, cell-based; details: mono-mac-6, 4 h
[11] = Down regulation of IL-8 mRNA expression in LPS/INF-gamma stimulated human MONO-MAC-6 cells at 16.54 uM preincubated for 1 hr followed by LPS/INF-gamma stimulation measured after 4 hrs by quantitative RT-PCR analysis; format: functional, cell-based
[12] = Down regulation of IL-6 mRNA expression in LPS/INF-gamma stimulated human MONO-MAC-6 cells at 16.54 uM preincubated for 1 hr followed by LPS/INF-gamma stimulation measured after 4 hrs by quantitative RT-PCR analysis; format: functional, cell-based
[13] = test system: MONO-MAC-6; test: Inhibition of IL-8 mRNA expression in LPS/INF-gamma stimulated human MONO-MAC-6 cells at 16.54 uM preincubated for 1 hr followed by LPS/INF-gamma stimulation measured after 16 hrs; format: functional, cell-based
[14] = test system: MONO-MAC-6; test: Inhibition of CXCL11 mRNA expression in LPS/INF-gamma stimulated human MONO-MAC-6 cells at 16.54 uM preincubated for 1 hr followed by LPS/INF-gamma stimulation measured after 16 hrs; format: functional, cell-based
[15] = test system: MONO-MAC-6; test: Inhibition of CCL3 mRNA expression in LPS/INF-gamma stimulated human MONO-MAC-6 cells at 16.54 uM preincubated for 1 hr followed by LPS/INF-gamma stimulation measured after 16 hrs; format: functional, cell-based
[16] = Down regulation of CCL2 mRNA expression in LPS/INF-gamma stimulated human MONO-MAC-6 cells at 16.54 uM preincubated for 1 hr followed by LPS/INF-gamma stimulation measured after 4 hrs by quantitative RT-PCR analysis; format: functional, cell-based
[17] = test system: MONO-MAC-6; test: Inhibition of LPS/INF-gamma induced CXCL10 promoter dependent transcription activity in human MONO-MAC-6 cells measured after 4 hrs by luciferase reporter gene assay; format: functional
[18] = test system: MONO-MAC-6; test: Inhibition of CCL1 mRNA expression in LPS/INF-gamma stimulated human MONO-MAC-6 cells at 16.54 uM preincubated for 1 hr followed by LPS/INF-gamma stimulation measured after 16 hrs; format: functional, cell-based
[19] = Down regulation of COX-2 mRNA expression in LPS/INF-gamma stimulated human MONO-MAC-6 cells at 16.54 uM preincubated for 1 hr followed by LPS/INF-gamma stimulation measured after 4 hrs by quantitative RT-PCR analysis; format: functional, cell-based
[20] = test system: MONO-MAC-6; test: Inhibition of CXCL10 mRNA expression in LPS/INF-gamma stimulated human MONO-MAC-6 cells at 16.54 uM preincubated for 1 hr followed by LPS/INF-gamma stimulation measured after 16 hrs; format: functional, cell-based
[21] = Inhibition of IRF (unknown origin) expressed in LPS/INF-gamma-stimulated human MONO-MAC-6 cells assessed as reduction in ISRE dependent transcription activity measured after 4 hrs by luciferase reporter gene assay; format: cell-based; details: MONO-MAC-6, 4 h
[22] = Downregulation of CXCL10 mRNA expression in human MONO-MAC-6 cells at 16.54 uM preincubated for 1 hr followed by LPS/INF-gamma stimulation measured after 4 hrs by quantitative RT-PCR analysis; format: functional, cell-based
[23] = test system: MONO-MAC-6; test: Inhibition of CXCL10 mRNA expression in LPS/INF-gamma stimulated human MONO-MAC-6 cells at 3.8 uM preincubated for 1 hr followed by LPS/INF-gamma stimulation measured after 16 hrs; format: functional, cell-based
[24] = test system: MONO-MAC-6; test: Inhibition of IL-23 mRNA expression in LPS/INF-gamma stimulated human MONO-MAC-6 cells at 3.8 uM preincubated for 1 hr followed by LPS/INF-gamma stimulation measured after 16 hrs; format: functional, cell-based
[25] = Down regulation of IL-8 mRNA expression in LPS/INF-gamma stimulated human MONO-MAC-6 cells at 3.8 uM preincubated for 1 hr followed by LPS/INF-gamma stimulation measured after 4 hrs by quantitative RT-PCR analysis; format: functional, cell-based
[26] = Down regulation of […] mRNA expression in LPS/INF-gamma stimulated human MONO-MAC-6 cells at 3.8 uM preincubated for 1 hr followed by LPS/INF-gamma stimulation measured after 4 hrs by quantitative RT-PCR analysis; format: functional, cell-based
[27] = Down regulation of TNF-alpha mRNA expression in LPS/INF-gamma stimulated human MONO-MAC-6 cells at 3.8 uM preincubated for 1 hr followed by LPS/INF-gamma stimulation measured after 4 hrs by quantitative RT-PCR analysis; format: functional, cell-based
[28] = test system: MONO-MAC-6; test: Inhibition of CCL1 mRNA expression in LPS/INF-gamma stimulated human MONO-MAC-6 cells at 3.8 uM preincubated for 1 hr followed by LPS/INF-gamma stimulation measured after 16 hrs; format: functional, cell-based
[29] = test system: MONO-MAC-6; test: Inhibition of CCL3 mRNA expression in LPS/INF-gamma stimulated human MONO-MAC-6 cells at 3.8 uM preincubated for 1 hr followed by LPS/INF-gamma stimulation measured after 16 hrs; format: functional, cell-based
[30] = Down regulation of CCL2 mRNA expression in LPS/INF-gamma stimulated human MONO-MAC-6 cells at 3.8 uM preincubated for 1 hr followed by LPS/INF-gamma stimulation measured after 4 hrs by quantitative RT-PCR analysis; format: functional, cell-based
[31] = Down regulation of IL-6 mRNA expression in LPS/INF-gamma stimulated human MONO-MAC-6 cells at 3.8 uM preincubated for 1 hr followed by LPS/INF-gamma stimulation measured after 4 hrs by quantitative RT-PCR analysis; format: functional, cell-based
[32] = test system: MONO-MAC-6; test: Inhibition of IL-6 mRNA expression in LPS/INF-gamma stimulated human MONO-MAC-6 cells at 3.8 uM preincubated for 1 hr followed by LPS/INF-gamma stimulation measured after 16 hrs; format: functional, cell-based
[33] = test system: MONO-MAC-6; test: Inhibition of CXCL1 mRNA expression in LPS/INF-gamma stimulated human MONO-MAC-6 cells at 3.8 uM preincubated for 1 hr followed by LPS/INF-gamma stimulation measured after 16 hrs; format: functional, cell-based
[34] = test system: MONO-MAC-6; test: Inhibition of TNF-alpha mRNA expression in LPS/INF-gamma stimulated human MONO-MAC-6 cells at 3.8 uM preincubated for 1 hr followed by LPS/INF-gamma stimulation measured after 16 hrs; format: functional, cell-based
[35] = test system: MONO-MAC-6; test: Inhibition of CXCL11 mRNA expression in LPS/INF-gamma stimulated human MONO-MAC-6 cells at 3.8 uM preincubated for 1 hr followed by LPS/INF-gamma stimulation measured after 16 hrs; format: functional, cell-based
[36] = Down regulation of COX-2 mRNA expression in LPS/INF-gamma stimulated human MONO-MAC-6 cells at 3.8 uM preincubated for 1 hr followed by LPS/INF-gamma stimulation measured after 4 hrs by quantitative RT-PCR analysis; format: functional, cell-based
[37] = Effect on GAPDH mRNA expression in human MONO-MAC-6 cells at 2.52 to 3.8 uM preincubated for 1 hr followed by LPS/INF-gamma stimulation measured after 4 hrs by quantitative RT-PCR analysis; format: ADME, cell-based; details: mono-mac-6, 4 h
[38] = test system: MONO-MAC-6; test: Inhibition of IL-8 mRNA expression in LPS/INF-gamma stimulated human MONO-MAC-6 cells at 3.8 uM preincubated for 1 hr followed by LPS/INF-gamma stimulation measured after 16 hrs; format: functional, cell-based

With C=C[C@H]1CC[C@]23C[C@@H]4[C@H](C)C(=O)[C@H]5O[C@]54[C@@]2(C)C[C@H](O)[C@]13C the Activity [1] was “Non-Toxic”, the Activity [2] was “Active” and the pIC50 [3] was 5.52 to 5.57. For the same compound, the Activity [4] was “Non-Toxic”, the inhibition [5] was “Active” and the pIC50 [6] was 5.82 to 5.89. The inhibition [7] was “Active”, the inhibition [8] was “Active” and the inhibition [9] was “Active”. The Activity [10] was “Non-Toxic”, the Activity [11] was “Active” and the Activity [12] was “Active”. The inhibition [13] was “Active”, the inhibition [14] was “Active” and the inhibition [15] was “Active”. The Activity [16] was “Active”, the inhibition [17] was “Dose-dependent effect” and the inhibition [18] was “Active”. The Activity [19] was “Active”, the inhibition [20] was “Active” and the pIC50 [21] was 5.92 to 6.00. The Activity [22] was “Active”.
With CC(C)[C@H]1CC[C@]23C[C@@H]4[C@H](C)C(=O)[C@H]5O[C@]54[C@@]2(C)CC(=O)[C@]13C the Activity [1] was “Non-Toxic”, the inhibition [23] was “Active” and the pIC50 [3] was 6.40 to 6.49. For the same compound, the inhibition [24] was “Active”, the Activity [25] was “Active” and the Activity [26] was “Active”. The Activity [27] was “Active”, the pIC50 [6] was 5.92 to 6.05 and the inhibition [28] was “Active”. The inhibition [29] was “Active”, the Activity [10] was “Non-Toxic” and the Activity [30] was “Active”. For the same compound, the Activity [31] was “Active”, the inhibition [32] was “Active” and the inhibition [33] was “Active”. For the same compound, the inhibition [34] was “Active”, the inhibition [17] was “Dose-dependent effect” and the inhibition [35] was “Active”. The Activity [36] was “Active”, the Activity [37] was “Non-Toxic” and the inhibition [38] was “Active”. The pIC50 [21] was 6.00 to 6.10.
